Measured values as given in article PMC11638627 (Current Research in Microbial Sciences, 2024).

Tested on: chitin deacetylase (CDA)
Experiment: p-nitroaniline release, absorbance at […] nm
Type: biochemical, Aneurinibacillus aneurinilyticus
Settings: 50 mM phosphate buffer pH 7.4, 37 °C; partially purified enzyme with two bands

Km: 98.5 µM
SMILES: CC(=O)Nc1ccc([N+](=O)[O-])cc1 [p-nitroacetanilide]
